Laboratory results as given in article PMC10489750, “Exploration of Baicalein-Core Derivatives as Potent Antifungal Agents: SAR and Mechanism Insights” (Molecules, 2023).

Biological target: T1, Eno1 (Candida albicans, UniProt P30575)
T1 sequence (P30575 1-440): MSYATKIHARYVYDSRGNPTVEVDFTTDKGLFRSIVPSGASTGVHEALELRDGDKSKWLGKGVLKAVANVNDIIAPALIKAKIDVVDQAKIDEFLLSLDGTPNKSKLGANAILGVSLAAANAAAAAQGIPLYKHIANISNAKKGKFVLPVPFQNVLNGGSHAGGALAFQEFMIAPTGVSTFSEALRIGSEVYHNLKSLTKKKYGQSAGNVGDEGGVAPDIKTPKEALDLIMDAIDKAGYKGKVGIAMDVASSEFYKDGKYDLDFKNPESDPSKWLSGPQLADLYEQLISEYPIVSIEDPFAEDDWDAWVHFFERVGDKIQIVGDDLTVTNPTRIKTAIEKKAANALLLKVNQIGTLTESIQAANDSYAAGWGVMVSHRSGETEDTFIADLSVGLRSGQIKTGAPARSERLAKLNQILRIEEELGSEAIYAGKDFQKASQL
Assay: in vitro enolase assay, […] compound, absorbance at […] nm, […] Eno1
Format: biochemical

SMILES: Nc1ccc(-c2cc(=O)c3c(O)c(O)c(O)cc3o2)cc1 [B5, 2-(4-aminophenyl)-5,6,7-trihydroxy-4H-chromen-4-one]
- in vitro enolase assay, 200 μM compound, absorbance at 240 nm, 30 nM Eno1: B5 exhibited some inhibitory ability in in vitro enzyme inhibition assay, although it was weaker than BE
